Measured values from PubChem BioAssay AID624167 (Sanford-Burnham Center for Chemical Genomics, 2012).
pIC50: −log10 of the molar value. The source made the active and inactive calls.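 How the source made its calls: active means mean IC50 for reducing PEG3 promoter reporter signal at or below a set limit, with IC50 above the limit in both counter screens; inactive means the rest, including counter screen hits.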

Assays:
PEG-3 [1] = test: Peg3 promoter luciferase inhibitors, potency, dose response, cell-based, HeLa, CREF/GAPDH counter-screen panel (AID 624167); conditions: HeLa PEG-Prom luciferase reporter, overnight, CREF/GAPDH counter-screens
PEG-3 [2] = target: PEG-3 (UniProt Q6IN02); test: as above; conditions: HeLa PEG-Prom luciferase reporter, overnight, CREF/GAPDH counter-screens, mean of runs
Sequence of PEG-3 (UniProt Q6IN02) (Q6IN02 whole entry, looked up): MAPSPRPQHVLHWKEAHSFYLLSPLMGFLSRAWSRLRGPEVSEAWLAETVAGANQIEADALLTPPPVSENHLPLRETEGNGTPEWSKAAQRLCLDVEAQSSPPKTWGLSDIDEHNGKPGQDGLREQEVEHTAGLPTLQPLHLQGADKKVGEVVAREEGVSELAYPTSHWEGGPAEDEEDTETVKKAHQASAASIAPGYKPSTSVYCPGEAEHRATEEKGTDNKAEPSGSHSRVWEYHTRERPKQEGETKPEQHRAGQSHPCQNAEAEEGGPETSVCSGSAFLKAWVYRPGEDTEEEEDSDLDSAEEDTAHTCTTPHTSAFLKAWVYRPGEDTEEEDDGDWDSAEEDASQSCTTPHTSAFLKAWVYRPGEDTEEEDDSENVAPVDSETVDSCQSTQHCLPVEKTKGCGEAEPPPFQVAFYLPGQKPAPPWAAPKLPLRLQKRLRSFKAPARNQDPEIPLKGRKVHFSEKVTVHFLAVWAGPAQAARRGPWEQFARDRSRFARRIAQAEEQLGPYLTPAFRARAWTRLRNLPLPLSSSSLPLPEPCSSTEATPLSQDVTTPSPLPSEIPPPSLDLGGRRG

[3] = run 1, dose range 1, individual replicate IC50 per panel
[4] = run 2, dose range 1, individual replicate IC50 per panel

| Structure (SMILES) | pIC50 (PEG-3 [1]; [3]) | pIC50 (PEG-3 [1]; [4]) | IC50 (PEG-3 [2]) | pIC50 (PEG-3 [2]) |
| --- | --- | --- | --- | --- |
| CC(NS(=O)(=O)OCC(Cl)(Cl)Cl)c1ccc(C(C)(C)C)cc1 (configuration not stated) | 4.42 | < 4.00 | inactive | – |
| CCOC(=O)c1c(NC(=O)CSc2nnnn2-c2ccccc2OCC)sc2c1CC(C)(C)NC2(C)C | 4.71 | 4.40 | inactive | – |
| CCCN(CC(=O)Nc1ccccc1C)C(=O)CCl | 4.25 | < 4.00 | inactive | – |
| COc1cc2ccccc2cc1C(=O)N(CCN(C)C)c1nc2c(OC)ccc(OC)c2s1 | 4.51 | 4.67 | inactive | – |
| Cc1ccccc1NC(=O)Nc1nc(C(N)C2CCCCC2)cs1 (configuration not stated) | 4.68 | 4.58 | inactive | – |
| CN(C)CCNc1ncnc2c1sc1nc(N3CCCC3)c3c(c12)CC(C)(C)OC3 | 4.49 | 4.88 | inactive | – |
| COc1ccc(-n2ncc3c(N(C)C4CCCCC4)ncnc32)cc1 | 4.58 | 4.36 | inactive | – |
| N#Cc1c(N)nc(SCc2ccncc2)c(C#N)c1-c1cccs1 | 4.67 | 4.89 | – | 4.77 |
| Cc1cc(C)c2sc(N(CCCN(C)C)C(=O)c3ccc(S(=O)(=O)N(C)C4CCCCC4)cc3)nc2c1 | 4.72 | 4.89 | – | 4.80 |
| CCOc1ccc(Nc2c3ccccc3nc3ccccc23)cc1 | 4.66 | 4.92 | – | 4.77 |
| Cc1cc(-n2c(SCC(=O)Nc3ccc(F)c(F)c3)nc3n[nH]c(C)c3c2=N)ccc1Cl | 4.39 | 4.52 | inactive | – |
| O=S(=O)(CC(CN1CCCCC1)N1CCCCC1)c1ccccc1 (configuration not stated) | 4.42 | 4.74 | inactive | – |
| C/C(=N\N=C(N)N)c1ccc(Cl)cc1Cl | 4.73 | 4.76 | – | 4.74 |
| Cc1cccc(NC(=O)CSc2nc3ccccc3c3nc(CCc4c(C)n[nH]c4C)nn23)c1 | 4.55 | 4.42 | inactive | – |
| CN1CCC(NC(=O)c2cc(-c3cccc(Br)c3)nc3ccccc23)CC1 | 4.68 | 4.82 | – | 4.74 |
| COc1ccccc1CCNC(=O)C1CCN(c2nnc(C)c3c(C)n(-c4ccc(C)cc4)nc23)CC1 | 4.71 | 4.62 | inactive | – |
| COc1ccc(-c2cc(C(=O)N(C)Cc3ccccc3F)c3ccccc3n2)cc1OC | 4.62 | 4.62 | inactive | – |
| CCN(CC)CCCCNc1ncc2cc(-c3cc(OC)cc(OC)c3)c(NC(=O)NC(C)(C)C)nc2n1 | 4.68 | 4.68 | inactive | – |
| CCN1C/C(=C/c2ccc(N3CCOCC3)cc2)C(=O)/C(=C/c2ccc(N3CCOCC3)cc2)C1 | 4.80 | 4.89 | – | 4.84 |
| CS(=O)(=O)c1ccc(C(=O)NCCN2C(=O)S/C(=C\c3cccnc3)C2=O)cc1[N+](=O)[O-] | 4.76 | 4.90 | – | 4.82 |
| CCCc1cc(=O)n2[nH]c(C)c(-c3ccc(Cl)cc3)c2n1 | 4.86 | 4.93 | – | 4.89 |
| CCCCN(C)C(=O)c1ccc(Nc2nc(C(N)CCc3ccccc3)cs2)nc1 (configuration not stated) | 4.56 | 4.81 | inactive | – |
| Cc1cccc(N2CCN(C(=O)C3CCN(c4ncnc5c4nc4n5CCCCC4)CC3)CC2)c1C | 4.52 | 4.74 | inactive | – |
| COc1cc(CNCCN2CCOCC2)ccc1OCc1ccc(Cl)cc1Cl | 4.70 | 4.71 | – | 4.70 |
| c1ccc(CN2CCC(Nc3nc(-c4cccnc4)nc4ccccc34)CC2)cc1 | 4.69 | 4.57 | inactive | – |

| Structure (SMILES) | pIC50 (PEG-3 [1]; [3]) | pIC50 (PEG-3 [1]; [4]) | IC50 (PEG-3 [2]) | pIC50 (PEG-3 [2]) |
| --- | --- | --- | --- | --- |
| COc1ccc(/C=C/C(=O)c2ccc3c4c(cccc24)CC3)cc1OC | 4.50 | 4.38 | inactive | – |
| COC(=O)c1ccc(CNC(=O)Cn2cnc3c(NCc4ccccc4)ncnc32)cc1 | 4.53 | 4.81 | inactive | – |
| O=C(Nc1ccc2oc(-c3ccncc3)nc2c1)c1ccc([N+](=O)[O-])o1 | 4.80 | 5.18 | – | 4.95 |
| CCOC(=O)c1ccc2ncc(C(=O)OCC)c(NCCN(C)C)c2c1 | 4.82 | 4.36 | inactive | – |
| Cn1nnnc1Sc1ncnc2scc(-c3ccsc3)c12 | 4.83 | 5.08 | – | 4.94 |
| Cc1ccc(-c2nnc(N3CCN(c4ccccn4)CC3)c3ccccc23)cc1 | 4.68 | 4.81 | – | 4.74 |
| CCOC(=O)C1CCN(c2cc3c(cc2NC(=O)c2ccccc2OCC)n(C)c(=O)n3C)CC1 | 4.45 | < 4.00 | inactive | – |
| Cc1ccc(-n2cc(CNCCCn3ccnc3C)c(-c3ccc(F)cc3)n2)cc1 | 4.81 | 4.98 | – | 4.89 |
| NC(=O)C1CCN(C2=C(Cl)C(=O)c3ccccc3C2=O)CC1 | 4.75 | 4.78 | – | 4.76 |
| CC(C)(C)C(=O)Nc1cc2nn(-c3ccccc3)nc2cc1Cl | 4.96 | 4.87 | – | 4.91 |
| CCN(CC)CCNC(=O)c1ccc(NC(=O)c2cccc(S(=O)(=O)N(C)C3CCCCC3)c2)cc1 | 4.54 | 4.59 | inactive | – |
| CC(NNC(=S)N1CCN(c2ccccn2)CC1)c1nccc2ccccc12 (configuration not stated) | 4.82 | 4.44 | inactive | – |
| CN(C)CCNC(=O)/C(=C/c1ccc(-c2ccc(Cl)cc2)o1)NC(=O)c1ccccc1 | 4.74 | 5.02 | – | 4.86 |
| O=C(Sc1cccc2cccnc12)c1ccccc1Br | 4.85 | 4.89 | – | 4.87 |
| COc1ccc(CNCCc2c(C)[nH]c3ccc(OC(F)(F)F)cc23)c(OC)c1 | 4.87 | 4.88 | – | 4.87 |
| Cc1ccc(N2CC(C(=O)Nc3nccs3)CC2=O)cc1Cl (configuration not stated) | 4.48 | 4.98 | inactive | – |
| CC(C)CC(N)c1csc(NC(=O)Nc2ccccc2C(C)C)n1 (configuration not stated) | 4.52 | 5.86 | – | 4.80 |
| CN(Cc1ccccc1F)C(=O)C(Cc1ccccc1)NC(=O)c1ccccc1 (configuration not stated) | 4.49 | 4.02 | inactive | – |
| CCOC(=O)c1c(C)[nH]c(C(=O)OCC(=O)Nc2sccc2C(N)=O)c1C | 4.51 | 4.16 | inactive | – |
| CCCCCCCNC(=O)C1(CC2CC(c3ccccc3)=NO2)CCNCC1 (configuration not stated) | 4.45 | 4.78 | inactive | – |
| CCN(CCN(C)C)C(=O)C1CCN(S(=O)(=O)c2c(C)noc2/C=C/c2ccccc2F)CC1 | 4.55 | 4.67 | inactive | – |
| CC1=CC(O)C(O)C2(C)C1CC1OC(=O)C(O)C3C(C)C(O)C4(O)OCC13C42 (configuration not stated) | 4.35 | 4.07 | inactive | – |
| CN(C)CCNc1ccc(CO)c2oc3ccc(O)cc3c(=O)c12 | 4.69 | 4.87 | – | 4.77 |
| Cc1ccc(NCCN(C)C)c2c(=O)c3cc(O)ccc3sc12 | 4.72 | 5.10 | – | 4.87 |
